Here are results for two compounds from patent US9572850B2, “Use of cajeput and Pimenta racemosa extract for treating parasitic infestation of fish” (Mars, Incorporated, priority 2009, dated 2017).

In data set [1] the test system is Gyrodactylus turnbulli infections on guppies. Kind of data set: Allyl disulphide carefully applied: high dose 10 min exposure, followed by low dose 1 h exposure. It counts as in vivo. The settings on record: high dose 10 min exposure, followed by low dose 1 h exposure.
In data set [2] the test system is single guppies each infected with 2-200 G. turnbulli. Kind of data set: Host mortality in Trial 2.
Method: They were fed on a mixture of live food (Daphnia and Artemia spp.) and Aquarian fish flakes at least twice daily and were maintained at 25±1° C. with a 12 h dark:12 h light cycle.
On D1 (day 1) and D8 (day 8) the number of parasites and their location on the host were recorded by screening fish anaesthetised with 0.02% MS222 using a stereo-microscope and cold light illumination.
In a second trial, single guppies (n=115) each infected with 2-200 G. turnbulli were maintained as in Trial 1 and received treatments of either allyl disulphide, Pimafix®, Melafix® or a Pimafix®/Melafix® combination.
The test system of data set [3] is G. turnbulli. Kind of data set: Trial 2: single parasite, single fish, low dose, 7 day treatment; efficacy of treatments. It counts as in vivo. The protocol:
(§1) Efficacy of treatments in all trials was assessed using the following equation: Et=(L0−Lt)/L0 for Lt<L0, and ΔEt=0 for Lt>L0. Where • L0=parasite load at start of treatment • Lt=parasite load at end of treatment and • Et=efficacy of treatment at time t.
All data were analysed in Minitab vs. 15.

The test system of data set [4] is G. turnbulli. Particulars: 0.15 mg/l alone (daily water changes). The method, then:
as §1

As for `C=CCSSCC=C` [Allyl disulphide, allyl disulphide], the “efficacy (in words)” value in data set [1] is listed as “effective only when carefully applied”; with G. turnbulli [3] (Trial 2, single parasite, single fish, low dose, 7 day treatment) it was “not effective”; in the data set with G. turnbulli [3] (applied at a low dose, comparable to applications used in the aquarium trade), “not effective”. The “increase of host mortality compared to the control” value in data set [2] is 15%. Besides, the “Host mortalities (%) Trial 2” value in data set [2] (single guppies, 7 day treatment) is reported as 50%.
For `c1ccc([C@H]2CN3CCSC3=N2)cc1` [Levamisole, levamisole], the “efficacy at removing parasites (in words)” value with G. turnbulli [4] is “not effective at removing parasites”.
